Assay results reported in BindingDB's records for doi:10.1021/acs.jmedchem.8b01183 (2018).

Assays:
[1] = target: T1, Sigma intracellular receptor 2 (Rattus norvegicus, UniProt Q5U3Y7); test: Displacement of [3H]-di-o-tolylguanidine from sigma2 receptor in rat liver membranes incubated for 120 mins by scintillation counting method
T1 sequence (Q5U3Y7 whole entry): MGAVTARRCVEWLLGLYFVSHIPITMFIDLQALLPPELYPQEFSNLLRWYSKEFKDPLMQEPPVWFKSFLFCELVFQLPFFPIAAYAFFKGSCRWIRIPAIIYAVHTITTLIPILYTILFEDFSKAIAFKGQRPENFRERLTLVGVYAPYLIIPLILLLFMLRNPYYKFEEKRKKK

[2] = target: Sigma non-opioid intracellular receptor 1 (Cavia porcellus, UniProt Q60492); test: Displacement of [3H]-(+)-pentazocine from sigma1 receptor in guinea pig brain cortex membranes incubated for 120 mins by scintillation counting method
Sequence of Sigma non-opioid intracellular receptor 1 (Q60492 whole entry): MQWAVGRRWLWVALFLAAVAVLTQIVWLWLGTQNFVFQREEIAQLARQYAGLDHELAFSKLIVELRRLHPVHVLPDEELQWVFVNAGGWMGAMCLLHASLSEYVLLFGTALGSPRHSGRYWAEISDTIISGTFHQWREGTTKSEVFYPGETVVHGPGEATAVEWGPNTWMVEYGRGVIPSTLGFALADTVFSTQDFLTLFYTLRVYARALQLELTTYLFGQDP

Mu-type opioid receptor [3] = target: Mu-type opioid receptor (Cavia porcellus, UniProt P97266); test: Displacement of [3H]DAMGO from MOR in guinea pig brain membranes incubated for 120 mins by scintillation counting method
Sequence of Mu-type opioid receptor (Cavia porcellus, UniProt P97266) (P97266 whole entry): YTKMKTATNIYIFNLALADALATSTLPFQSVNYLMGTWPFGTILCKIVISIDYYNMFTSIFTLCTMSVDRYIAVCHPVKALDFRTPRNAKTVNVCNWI

[4] = target: Kappa-type opioid receptor (Cavia porcellus, UniProt P41144); test: Displacement of [3H]U-69,593 from KOR in guinea pig brain membranes incubated for 120 mins by scintillation counting method
Sequence of Kappa-type opioid receptor (P41144 whole entry): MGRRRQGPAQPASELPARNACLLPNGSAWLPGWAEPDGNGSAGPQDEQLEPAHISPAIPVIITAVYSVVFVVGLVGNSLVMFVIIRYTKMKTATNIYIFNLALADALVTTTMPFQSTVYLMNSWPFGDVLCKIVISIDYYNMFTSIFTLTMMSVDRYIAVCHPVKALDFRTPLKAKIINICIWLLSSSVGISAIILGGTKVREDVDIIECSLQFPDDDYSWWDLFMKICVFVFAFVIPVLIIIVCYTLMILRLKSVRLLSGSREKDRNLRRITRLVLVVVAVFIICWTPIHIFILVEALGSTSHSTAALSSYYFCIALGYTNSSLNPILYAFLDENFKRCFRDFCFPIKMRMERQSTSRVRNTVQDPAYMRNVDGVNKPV

[5] = target: Delta-type opioid receptor (Rattus norvegicus, UniProt P33533); test: Displacement of [3H]DPDPE from DOR in rat brain membranes incubated for 120 mins by scintillation counting method
Sequence of Delta-type opioid receptor (P33533 whole entry): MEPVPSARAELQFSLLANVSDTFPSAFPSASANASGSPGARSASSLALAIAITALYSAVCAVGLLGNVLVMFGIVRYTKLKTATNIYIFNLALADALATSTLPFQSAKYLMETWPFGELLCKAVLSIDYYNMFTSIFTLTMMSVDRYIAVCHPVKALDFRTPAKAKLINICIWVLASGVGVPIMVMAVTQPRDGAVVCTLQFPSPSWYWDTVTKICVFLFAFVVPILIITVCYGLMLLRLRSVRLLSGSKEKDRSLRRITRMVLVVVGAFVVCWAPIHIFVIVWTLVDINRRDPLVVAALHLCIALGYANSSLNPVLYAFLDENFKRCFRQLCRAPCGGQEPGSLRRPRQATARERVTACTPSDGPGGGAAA

Mu-type opioid receptor [6] = target: Mu-type opioid receptor (Homo sapiens, UniProt P35372); test: Agonist activity at human MOR expressed in CHOK1 cells assessed as reduction in forskolin-induced intracellular cAMP increase after 45 mins by HTRF analysis
Sequence of Mu-type opioid receptor (Homo sapiens, UniProt P35372) (P35372 whole entry): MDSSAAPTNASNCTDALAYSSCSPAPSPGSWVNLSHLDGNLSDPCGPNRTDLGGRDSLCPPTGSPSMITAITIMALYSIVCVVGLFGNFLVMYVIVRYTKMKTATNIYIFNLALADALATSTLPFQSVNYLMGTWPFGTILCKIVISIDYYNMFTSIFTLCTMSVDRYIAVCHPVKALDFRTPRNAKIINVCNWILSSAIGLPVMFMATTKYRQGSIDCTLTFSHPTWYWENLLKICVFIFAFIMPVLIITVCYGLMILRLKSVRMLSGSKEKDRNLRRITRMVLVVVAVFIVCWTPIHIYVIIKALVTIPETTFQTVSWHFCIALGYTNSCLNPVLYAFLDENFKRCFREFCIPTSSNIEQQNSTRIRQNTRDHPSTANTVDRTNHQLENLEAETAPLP

Row | Ki [1] [nM] | Ki [2] [nM] | Structure (SMILES) | other results
1 | > 1000 |  | Cc1ccc(CNC2CCC3(CC2)O[C@@H](CCF)Cc2ccccc23)c(C)c1 (stereo partly specified) | 
2 |  | 12 | FCC[C@@H]1Cc2ccccc2C2(CCC(N3CCN(C4CCCCC4)CC3)CC2)O1 (stereo partly specified) | Ki (Mu-type opioid receptor [3]): > 1000 nM; Ki [4]: > 1000 nM; Ki [5]: > 1000 nM
3 | > 1000 |  | CO[C@@H]1Cc2ccccc2C2(CCC(NCc3ccccc3)CC2)O1 (stereo partly specified) | 
4 | > 1000 | > 1000 | COc1cc2c(cc1OC)CN(C1CCC3(CC1)O[C@@H](O)Cc1ccccc13)CC2 (stereo partly specified) | 
5 |  | > 1000 | CCOC(=O)C[C@H]1Cc2ccccc2C2(CCC(N3CCc4cc(OC)c(OC)cc4C3)CC2)O1 (stereo partly specified) | 
6 | > 1000 |  | CO[C@H]1Cc2ccccc2C2(CCC(NCc3ccccc3)CC2)O1 (stereo partly specified) | 
7 | 505 |  | OCC[C@H]1Cc2ccccc2C2(CCC(N3CCN(C4CCCCC4)CC3)CC2)O1 (stereo partly specified) | 
8 | > 1000 | > 1000 | CCOC(=O)C[C@@H]1Cc2ccccc2C2(CCC(N3CCc4cc(OC)c(OC)cc4C3)CC2)O1 (stereo partly specified) | 
9 | 505 | > 1000 | COc1cc2c(cc1OC)CN(C1CCC3(CC1)O[C@@H](CCF)Cc1ccccc13)CC2 (stereo partly specified) | 
10 |  | > 1000 | Cc1ccc(CNC2CCC3(CC2)O[C@H](CCO)Cc2ccccc23)c(C)c1 (stereo partly specified) | 
11 |  | 12 | CCOC(=O)C[C@H]1Cc2ccccc2C2(CCC(N3CCN(C4CCCCC4)CC3)CC2)O1 (stereo partly specified) | Ki [4]: > 1000 nM; Ki [5]: > 1000 nM; EC50 (Mu-type opioid receptor [6]): > 10000 nM
12 | > 1000 | > 1000 | COc1cc2c(cc1OC)CN(C1CCC3(CC1)O[C@H](CCO)Cc1ccccc13)CC2 (stereo partly specified) | 
13 | 302 |  | O[C@@H]1Cc2ccccc2C2(CCC(N3CCN(C4CCCCC4)CC3)CC2)O1 (stereo partly specified) | 
14 |  |  | FCC[C@H]1Cc2ccccc2C2(CCC(N3CCN(C4CCCCC4)CC3)CC2)O1 (stereo partly specified) | Ki [4]: > 1000 nM
15 |  | 12 | CCOC(=O)C[C@@H]1Cc2ccccc2C2(CCC(N3CCN(C4CCCCC4)CC3)CC2)O1 (stereo partly specified) | 
16 | > 1000 | > 1000 | CO[C@@H]1Cc2ccccc2C2(CCC(NCCCc3cn(-c4ccc(F)cc4)c4ccccc34)CC2)O1 (stereo partly specified) | 
17 | 302 | > 1000 | Cc1ccc(CNC2CCC3(CC2)O[C@H](CCF)Cc2ccccc23)c(C)c1 (stereo partly specified) | 
18 |  | > 1000 | CCOC(=O)C[C@@H]1Cc2ccccc2C2(CCC(NCc3ccc(C)cc3C)CC2)O1 (stereo partly specified) | 
19 |  | > 1000 | CO[C@H]1Cc2ccccc2C2(CCC(NCc3ccc(C)cc3C)CC2)O1 (stereo partly specified) | 
20 |  |  | O[C@H]1Cc2ccccc2C2(CCC(N3CCN(C4CCCCC4)CC3)CC2)O1 (stereo partly specified) | Ki (Mu-type opioid receptor [3]): > 1000 nM; Ki [5]: > 1000 nM; EC50 (Mu-type opioid receptor [6]): > 10000 nM
21 | > 1000 | > 1000 | COc1cc2c(cc1OC)CN(C1CCC3(CC1)O[C@@H](CCO)Cc1ccccc13)CC2 (stereo partly specified) | 
22 |  | > 1000 | COc1cc2c(cc1OC)CN(C1CCC3(CC1)O[C@@H](OC)Cc1ccccc13)CC2 (stereo partly specified) | 
23 | > 1000 |  | COc1cc2c(cc1OC)CN(C1CCC3(CC1)O[C@H](CCF)Cc1ccccc13)CC2 (stereo partly specified) | 
24 |  | > 1000 | CO[C@@H]1Cc2ccccc2C2(CCC(NC3CCc4ccccc4CC3)CC2)O1 (stereo partly specified) | 
25 | > 1000 |  | CO[C@H]1Cc2ccccc2C2(CCC(NCCCc3cn(-c4ccc(F)cc4)c4ccccc34)CC2)O1 (stereo partly specified) | 

Row | Structure (SMILES) | Ki [1] [nM] | Ki [2] [nM] | other results
26 | Cc1ccc(CNC2CCC3(CC2)O[C@@H](O)Cc2ccccc23)c(C)c1 (stereo partly specified) |  | > 1000 | 
